In patent US10670605B2, “Cysteine reactive probes and uses thereof” (The Scripps Research Institute, priority 2015, dated 2020):
Blank lines part the entries; values can stand above or below the compound they belong to.

Columns and labels:
Assay in all cases: Competitive isoTOP-ABPP, cell lysates;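 on isoTOP-ABPP reactivity profile ratio, P63244 C182: Heavy/light ratio DMSO over fragment-treated so higher means more cysteine engagement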;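 on isoTOP-ABPP reactivity profile ratio, Q99873 C109: Heavy/light ratio DMSO over fragment-treated so higher means more cysteine engagement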
Type in all cases: binding
DCUN1D1 C115 (Q96GG9) = DCUN1D1 C115 (Q96GG9) (Homo sapiens, UniProt Q96GG9)
UCHL3 C95 (P15374) = target: T1, UCHL3 C95 (P15374) (Homo sapiens, UniProt P15374)
T1 sequence (P15374 1-230): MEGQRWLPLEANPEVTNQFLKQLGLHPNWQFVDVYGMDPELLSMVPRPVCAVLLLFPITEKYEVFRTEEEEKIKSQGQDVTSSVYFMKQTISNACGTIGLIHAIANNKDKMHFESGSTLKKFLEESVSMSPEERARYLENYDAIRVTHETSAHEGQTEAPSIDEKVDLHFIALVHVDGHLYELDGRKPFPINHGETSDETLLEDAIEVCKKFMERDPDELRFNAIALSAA

MGMT C150 (P16455) = target: T2, MGMT C150 (P16455) (Homo sapiens, UniProt P16455)
T2 sequence (P16455 1-207): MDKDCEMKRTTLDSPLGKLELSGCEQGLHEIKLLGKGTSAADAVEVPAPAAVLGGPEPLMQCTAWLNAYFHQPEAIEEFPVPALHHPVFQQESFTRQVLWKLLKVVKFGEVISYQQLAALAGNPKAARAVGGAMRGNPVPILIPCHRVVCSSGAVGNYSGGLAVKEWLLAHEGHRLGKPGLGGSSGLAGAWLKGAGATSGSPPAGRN

UBE2L3 C86 (P68036) = UBE2L3 C86 (P68036) (Homo sapiens, UniProt P68036)
GNB2L1 C182 (P63244) = GNB2L1 C182 (P63244) (Homo sapiens, UniProt P63244);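 on isoTOP-ABPP reactivity profile ratio, P63244 C182: Heavy/light ratio DMSO over fragment-treated so higher means more cysteine engagement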
PCK2 C306 (Q16822) = target: T3, PCK2 C306 (Q16822) (Homo sapiens, UniProt Q16822)
T3 sequence (Q16822 33-640): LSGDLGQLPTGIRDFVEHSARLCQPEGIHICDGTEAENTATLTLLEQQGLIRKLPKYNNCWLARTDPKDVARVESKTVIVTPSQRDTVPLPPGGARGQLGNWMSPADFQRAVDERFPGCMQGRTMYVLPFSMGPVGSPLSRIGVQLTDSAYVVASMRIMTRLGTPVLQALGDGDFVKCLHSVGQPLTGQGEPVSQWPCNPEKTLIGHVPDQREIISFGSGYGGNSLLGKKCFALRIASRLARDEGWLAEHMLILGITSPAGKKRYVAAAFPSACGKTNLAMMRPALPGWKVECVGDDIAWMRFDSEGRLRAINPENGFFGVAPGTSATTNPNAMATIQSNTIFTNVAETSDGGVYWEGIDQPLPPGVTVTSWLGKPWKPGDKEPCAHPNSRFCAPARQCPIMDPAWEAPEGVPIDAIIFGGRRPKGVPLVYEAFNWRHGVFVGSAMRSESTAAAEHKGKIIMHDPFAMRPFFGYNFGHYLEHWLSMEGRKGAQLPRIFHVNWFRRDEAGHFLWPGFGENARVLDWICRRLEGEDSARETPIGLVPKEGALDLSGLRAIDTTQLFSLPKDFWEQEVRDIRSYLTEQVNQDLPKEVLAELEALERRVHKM

STAT3 C259 (P40763) = STAT3 C259 (P40763) (Homo sapiens, UniProt P40763)
PRMT1 C109 (Q99873) = PRMT1 C109 (Q99873) (Homo sapiens, UniProt Q99873); conditions: for isoTOP-ABPP reactivity profile ratio, Q99873_C109 / isoTOP-ABPP reactivity ratio, Q99873_C109: 500 μm;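 on isoTOP-ABPP reactivity profile ratio, Q99873 C109: Heavy/light ratio DMSO over fragment-treated so higher means more cysteine engagement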
ZNF217 C286 (O75362) = ZNF217 C286 (O75362) (Homo sapiens, UniProt O75362); conditions: for isoTOP-ABPP reactivity profile ratio, O75362_C286 / isoTOP-ABPP reactivity ratio, O75362_C286: 500 μm

isoTOP-ABPP ratio (reactivity profile), Q96GG9_C115 (DCUN1D1 C115 (Q96GG9); 500 μm in-vitro ramos): 20.0 | isoTOP-ABPP ratio (reactivity profile), P15374_C95 (UCHL3 C95 (P15374); 500 μm in-vitro ramos): 1.1 | isoTOP-ABPP ratio (reactivity profile), P15374_C95 (UCHL3 C95 (P15374); 500 μm in-vitro ramos_231): 0.8 | isoTOP-ABPP ratio (reactivity profile), P16455_C150 (MGMT C150 (P16455); 500 μm in-vitro ramos): 1.0 | isoTOP-ABPP ratio (reactivity profile), P68036_C86 (UBE2L3 C86 (P68036); 500 μm in-vitro ramos): 13.2 | isoTOP-ABPP ratio (reactivity profile), P68036_C86 (UBE2L3 C86 (P68036); 500 μm in-vitro ramos_231): 7.4 | isoTOP-ABPP ratio (reactivity profile), P63244_C182 (GNB2L1 C182 (P63244); 500 μm in-vitro ramos_231): 4.6 | isoTOP-ABPP ratio (reactivity profile), Q16822_C306 (PCK2 C306 (Q16822); 500 μm in-vitro ramos_231): 3.0 | isoTOP-ABPP ratio (reactivity profile), P40763_C259 (STAT3 C259 (P40763); 500 μm in-vitro ramos): 0.8 | isoTOP-ABPP ratio (reactivity profile), P40763_C259 (STAT3 C259 (P40763); 500 μm in-vitro ramos_231): 1.1 | isoTOP-ABPP ratio (reactivity profile), Q99873_C109 (PRMT1 C109 (Q99873); 500 μm in-vitro ramos): 1.0 | isoTOP-ABPP ratio (reactivity profile), Q99873_C109 (PRMT1 C109 (Q99873); 500 μm in-vitro ramos_231): 0.8 | isoTOP-ABPP ratio (reactivity profile), O75362_C286 (ZNF217 C286 (O75362); 500 μm in-vitro ramos_231): 20.0
SMILES: N#C/C(=C\c1cc(C(F)(F)F)cc(C(F)(F)F)c1)C(N)=O [compound 23]

isoTOP-ABPP reactivity profile ratio, P63244_C182 (GNB2L1 C182 (P63244); 500 μm, in-vitro_ramos_231): 0.9 | isoTOP-ABPP reactivity profile ratio, Q16822_C306 (PCK2 C306 (Q16822); 500 μm, in-vitro_ramos_231): 3.3 | isoTOP-ABPP reactivity profile ratio, Q99873_C109 (PRMT1 C109 (Q99873); in-vitro_ramos_231): 2.2 | isoTOP-ABPP reactivity profile ratio, O75362_C286 (ZNF217 C286 (O75362); in-vitro_ramos_231): 20.0
SMILES: CC1CCc2ccccc2N1C(=O)CCl (centres unmarked) [compound 45]

isoTOP-ABPP reactivity profile ratio, Q96GG9_C115 (DCUN1D1 C115 (Q96GG9); 500 μm, in-vitro_ramos): 0.8 | isoTOP-ABPP reactivity profile ratio, P15374_C95 (UCHL3 C95 (P15374); 500 μm, in-vitro_ramos): 0.9 | isoTOP-ABPP reactivity profile ratio, P68036_C86 (UBE2L3 C86 (P68036); 500 μm, in-vitro_ramos): 1.0 | isoTOP-ABPP reactivity profile ratio, P63244_C182 (GNB2L1 C182 (P63244); 500 μm, in-vitro_ramos): 0.9 | isoTOP-ABPP reactivity profile ratio, P63244_C182 (GNB2L1 C182 (P63244); 500 μm, in-vitro_ramos_231): 0.7 | isoTOP-ABPP reactivity profile ratio, Q16822_C306 (PCK2 C306 (Q16822); 500 μm, in-vitro_ramos): 0.8 | isoTOP-ABPP reactivity profile ratio, Q99873_C109 (PRMT1 C109 (Q99873); in-vitro_ramos): 9.5 | isoTOP-ABPP reactivity profile ratio, Q99873_C109 (PRMT1 C109 (Q99873); in-vitro_ramos_231): 0.9 | blockade of IA-alkyne labeling of C109 of PRMT1 (PRMT1 C109 (Q99873); competitive isoTOP-ABPP): blocking IA-alkyne labeling | isoTOP-ABPP reactivity profile ratio, O75362_C286 (ZNF217 C286 (O75362); in-vitro_ramos): 20.0 | isoTOP-ABPP reactivity profile ratio, O75362_C286 (ZNF217 C286 (O75362); in-vitro_ramos_231): 0.9
SMILES: O=C(CCl)Nc1cccc2ncccc12 [compound 51]

isoTOP-ABPP reactivity ratio, Q96GG9_C115 (DCUN1D1 C115 (Q96GG9); 500 μm, in-vitro_ramos): 1.0 | isoTOP-ABPP reactivity ratio, Q96GG9_C115 (DCUN1D1 C115 (Q96GG9); 500 μm, in-vitro_ramos_231): 1.2 | isoTOP-ABPP reactivity ratio, P15374_C95 (UCHL3 C95 (P15374); 500 μm, in-vitro_ramos): 12.5 | isoTOP-ABPP reactivity ratio, P15374_C95 (UCHL3 C95 (P15374); 500 μm, in-vitro_ramos_231): 2.7 | isoTOP-ABPP reactivity ratio, P16455_C150 (MGMT C150 (P16455); 500 μm, in-vitro_ramos): 1.8 | isoTOP-ABPP reactivity ratio, P68036_C86 (UBE2L3 C86 (P68036); 500 μm, in-vitro_ramos): 1.5 | isoTOP-ABPP reactivity ratio, P63244_C182 (GNB2L1 C182 (P63244); 500 μm, in-vitro_ramos_231): 1.1 | isoTOP-ABPP reactivity ratio, Q16822_C306 (PCK2 C306 (Q16822); 500 μm, in-vitro_ramos_231): 1.0 | isoTOP-ABPP reactivity ratio, P40763_C259 (STAT3 C259 (P40763); 500 μm, in-vitro_ramos): 1.5 | isoTOP-ABPP reactivity ratio, Q99873_C109 (PRMT1 C109 (Q99873); in-vitro_ramos): 1.4 | isoTOP-ABPP reactivity ratio, Q99873_C109 (PRMT1 C109 (Q99873); in-vitro_ramos_231): 0.9 | isoTOP-ABPP reactivity ratio, O75362_C286 (ZNF217 C286 (O75362); in-vitro_ramos): 1.2 | isoTOP-ABPP reactivity ratio, O75362_C286 (ZNF217 C286 (O75362); in-vitro_ramos_231): 0.9
SMILES: C=CC(=O)Nc1cc(F)c(N2CCN(C(=O)OC(C)(C)C)CC2)c(F)c1 [compound 38]
